The subject of series [1] is MRSA USA 300. Description: MIC (broth microdilution) of peptides, MRSA. The series is classed as cell-based, methicillin resistant Staphylococcus aureus. The following applies: MRSA USA300; mode of three biological replicates. The procedure: Minimal inhibitory concentration (MIC) against planktonic bacteria: The MIC of the synthetic peptides was determined in Mueller-Hinton broth (MHB) using the broth microdilution method described previously [Wiegand, I., Hilpert, K., & Hancock, R. E. (2008). Agar and broth dilution methods to determine the minimal inhibitory concentration (MIC) of antimicrobial substances. Nature Protocols, 3(2), 163-175]. Briefly, 10 μl of a 10× concentrated peptide solution was placed in the bottom of a well in a 96-well polypropylene round bottom plate (Corning Inc.). A bacterial suspension of ~5×10^5 CFU/ml was prepared from an overnight culture and 90 μl of this was added to each well. […] Bacteria tested included P. aeruginosa PAO1, MRSA USA300 LAC, Staphylococcus haemolyticus, Staphylococcus epidermidis, Klebsiella pneumoniae and Streptococcus salivarius.
Finally, the AB103-D derivatives that were the least aggregation prone and which produced the lowest toxic effects in vivo were evaluated for their direct antibacterial activity towards several pathogens of clinical relevance using a standard minimum inhibitory concentration (MIC) assay [Wiegand, I., Hilpert, K., & Hancock, R. E. (2008). Agar and broth dilution methods to determine the minimal inhibitory concentration (MIC) of antimicrobial substances. Nature Protocols, 3(2), 163-175]. Specifically, peptides AB110-D, AB111-D, AB114-D and AB115-D were tested against P. aeruginosa PAO1, MRSA USA 300, Staphylococcus haemolyticus, Staphylococcus epidermidis, Klebsiella pneumoniae and Streptococcus salivarius and compared against the antibacterial activity of DJK-5 and AB103-D (Table 7). Overall, the antibacterial potency of all of the AB103-D derivatives was stronger than that seen for DJK-5, particularly in the case of the Gram-negative pathogens P. aeruginosa and K. pneumoniae. […]

For series [2], the system named is oral multispecies biofilm. Description: Oral multispecies biofilm development on HA disks. The series is classed as cell-based. The following applies: 10 μg/ml, 3 days.
A short description of series [3]: Subdermal murine toxicity model. The following applies: for Clinical score: 1 hour after subcutaneous administration, comparator DJK-5. The essentials:
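Peptides given subdermally to shaved, depilated, isoflurane-anaesthetised female CD-1 mice (8 weeks, 25±5 g) at 4 mg/kg. Summed clinical scores taken at 1 h; cyst or lesion presence and caliper size recorded at 16 h. Values are the mean of two independent replicates.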

The subject of series [4] is P. aeruginosa PAO1 biofilms. The conditions noted are these: for minimum inhibitory concentration of peptide that inhibited at least 90% of biofilm growth (MBIC90): P. aeruginosa PAO1 biofilms, >95% pure peptides, BM2 minimal media; for minimum inhibitory concentration of peptide that inhibited at least 90% of biofilm growth (MBIC90) / IC50: crystal violet; for IC50: read-out: Biofilm Inhibition IC50, PAO1, 24 hours.

In series [5] the test system is MRSA USA300. The experiment in a line: Murine sinusitis model, MRSA. The class given is in vivo, mouse; methicillin resistant Staphylococcus aureus. The text has this:
FIGS. 15A-15I show peptides AB101-D, AB102-D and AB103-D compared to DJK5 in a murine sinusitis model of bacterial infections. MRSA USA300, nasal cavity (FIG. 15A) P. aeruginosa LESB58 (FIG. 15B and FIG. 15C, nasal cavity); MRSA USA300, lung tissue (FIG. 15D) P. aeruginosa LESB58 (FIG. 15E and FIG. 15F, lung tissue); and MRSA USA300, weight change (FIG. 15G) P. aeruginosa LESB58 (FIG. 15H and FIG. 15I, weight change).
A murine sinusitis model of bacterial infections in the nasal cavity of mice [Alford et al. (2021). Murine model of sinusitis infection for screening antimicrobial and immunomodulatory therapies. Frontiers in Cellular and Infection Microbiology., 11, 621081] was used to determine the efficacy of D-amino acid peptides AB101-D, AB102-D and AB103-D compared to DJK5. […]. Treatment was applied either as dropwise administration of a peptide solution (20 μl) to the infected naris of a mouse (FIGS. 15A, 15B, 15D, 15E, 15G, 15H) or peptide was delivered using a Respimat® inhaler device (FIGS. 15C, 15F, 15I). Mice were monitored and weighed once daily for up to three days then euthanized prior to collection of nasal lavage fluid and lung tissue for bacterial enumeration. The limit of detection is shown by the dotted line at log CFU=2. […] Accordingly, the results indicated enhanced efficacy of D-amino acid peptides AB101-D, AB102-D and AB103-D compared to DJK5 in this murine model.

The subject of series [6] is MRSA preformed biofilms. Description: Biofilm eradication of 24-hr preformed biofilms (TTC metabolic dye), MRSA. The series is classed as cell-based, methicillin resistant Staphylococcus aureus. The conditions noted are these: 24-hr preformed biofilms treated overnight.
The subject of series [7] is PAO1 biofilms on human skin organoid. The experiment in a line: Skin organoid biofilm infection model, peptide solution, PAO1. The class given is cell-based, Pseudomonas aeruginosa. The conditions noted are these: peptide solution 4 hrs (FIG. 3B).
Series [8] concerns P. aeruginosa PAO1. Description: Biofilm inhibition (at least 80%), P. aeruginosa. The class given is cell-based, Pseudomonas aeruginosa. The following applies: n = 4, BM2 minimal media, 18-24 hours, crystal violet.
Series [9] relates to E. coli O157:H7. Description: Biofilm inhibition (at least 80%), E. coli. The conditions noted are these: n = 3, BM2 minimal media, 18-24 hours, crystal violet. The class given is cell-based, Escherichia coli.
The test system of series [10] is Enterobacter cloacae 218R1. Description: Biofilm inhibition (at least 80%), E. cloacae. The class given is cell-based. The following applies: E. cloacae 218R1; n = 3; BM2 minimal media; 18-24 hours; crystal violet.
The subject of series [11] is MRSA USA300. Description: Biofilm inhibition (at least 80%), MRSA. The series is classed as cell-based, methicillin resistant Staphylococcus aureus. The conditions noted are these: n = 4, 10% TSB + 0.1% glucose, 18-24 hours, crystal violet.
The test system of series [12] is A. baumanii biofilms on Ker-CT epidermal skin. The experiment in a line: Skin organoid biofilm model, AB103-D loaded Medvance foam dressing, A. baumanii. The class given is cell-based, Acinetobacter baumannii.

In brackets after ≈: the same amount, converted by molar mass. Where a SMILES comes first, the peptide text is derived from it. [ ]: non-standard residue; d: D form.

Take `CC[C@@H](C)[C@@H](NC(=O)[C@@H](C)NC(=O)[C@@H](CCCNC(=N)N)NC(=O)[C@@H](Cc1c[nH]c2ccccc12)NC(=O)[C@@H](CCC(N)=O)NC(=O)[C@H](NC(=O)[C@@H](CCCNC(=N)N)NC(=O)[C@H](NC(=O)[C@H](NC(=O)[C@@H](CCCNC(=N)N)NC(=O)[C@H](NC(=O)[C@H](N)CCCNC(=N)N)C(C)C)C(C)C)[C@H](C)CC)C(C)C)C(N)=O` [AB103-D, rvrvirvqwrai-NH2] (H-[dR][dV][dR][dV][dI][dR][dV][dQ][dW][dR][dA][dI]-NH2): the MIC in [1] stood at 0.8 µg/mL (≈ 0.516 µM). Also, in [2], the Total biovolume entry was “reduced total biovolume”. Besides, the “Percentage of dead bacterial cell volume” value in [2] (compared to DJK5) is recorded as “significantly higher percentage of dead bacterial cell volume compared to DJK5 treatment”. The Clinical score in series [3] is reported as below 2. In series [3] (16 hours after administration, 4 mg/kg), the “Average cyst size compared to DJK-5” value is on record as “smaller than those induced by DJK-5”. Besides, in series [4] (P. aeruginosa), the “Biofilm inhibition activity compared to DJK5” value is listed as at least 4 fold. Moreover, the “minimum inhibitory concentration of peptide that inhibited at least 90% of biofilm growth (MBIC90)” value in series [4] worked out at 8 µM. Besides, the IC50 amounted to 1.9 µM in [4] and 2.2 µM in series [6]. The “Bacteria in nasal cavity and lungs” value in series [5] (MRSA USA300, 0.1 mg dose, compared to DJK5) is “reduced the amount of bacteria in the nasal cavity and lungs of mice much more than DJK5 treatment”. For the same compound, in series [7], the “Antibiofilm activity on skin organoid” value is recorded as “excellent antibiofilm activity”. The “Peptide/Antibiotic Concentration where at least 80% of biofilm growth was inhibited” value was determined as 2 µg/mL in series [8], 1 µg/mL in [9], 1 µg/mL in series [10] and 0.5 µg/mL in [11]. Besides, the “Bacterial burden on organoid skin, loaded bandage” value in series [12] is “effectively reduce the bacterial burden”.
In series [1], `CC[C@@H](C)[C@@H](NC(=O)[C@@H](C)NC(=O)[C@@H](CCCNC(=N)N)NC(=O)[C@@H](Cc1c[nH]c2ccccc12)NC(=O)[C@@H](CCC(N)=O)NC(=O)[C@H](N)C(C)C)C(=O)N[C@H](CCCNC(=N)N)C(=O)N[C@@H](C(=O)N[C@H](CCCNC(=N)N)C(=O)N[C@@H](C(=O)N[C@@H](C(=O)N[C@H](CCCNC(=N)N)C(N)=O)[C@H](C)CC)C(C)C)C(C)C` [DJK5, vqwrairvrvir-NH2] (H-[dV][dQ][dW][dR][dA][dI][dR][dV][dR][dV][dI][dR]-NH2) displayed a minimum inhibitory concentration (MIC) of 0.8 µg/mL (≈ 0.516 µM). Further, the Clinical score in series [3] turned out to be 2. In series [4], the “minimum inhibitory concentration of peptide that inhibited at least 90% of biofilm growth (MBIC90)” value came out at 16 µM. For the same compound, the values for the IC50 in series [4] and in series [6] were 7.4 µM and 1.6 µM, respectively. Further, in [5] (MRSA USA300 infected mice), the Weight loss result is on record as “did not prevent weight loss”. The “Peptide/Antibiotic Concentration where at least 80% of biofilm growth was inhibited” value in series [8] was 8 µg/mL; in [9], 1 µg/mL; in series [10], 2 µg/mL; in series [11], 1 µg/mL.

Source of the values: patent US20260374818A1, “CATIONIC PEPTIDES WITH BROAD SPECTRUM ACTIVITY” (priority 2023, published 2026).
